In US20230085307A1, “PYRIDAZINONE COMPOUND AND HERBICIDE” (NISSAN CHEMICAL CORPORATION, priority 2019, published 2023):

Assays:
late watergrass = test: Test Example 1: herbicidal activity, application before weed generation under submerged conditions (Table 16, symbol A); format: in vivo, late watergrass (Echinochloa oryzicola)
Method in brief: (§1)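 Alluvial soil was flooded to 4 cm depth, weed seeds were sown mixed and 2.5-leaf rice seedlings were transplanted. On sowing day, the compound's emulsion, diluted in water to a set dose, was applied to the water surface. Plants grew at 25–30 °C and were scored 0–5 after three weeks.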

Japanese bulrush = test: Test Example 1: herbicidal activity, application before weed generation under submerged conditions (Table 16, symbol B); format: in vivo, Japanese bulrush (Schoenoplectus juncoides)
Method in brief: as §1

oval-leafed pondweed = test: Test Example 1: herbicidal activity, application before weed generation under submerged conditions (Table 16, symbol C); format: in vivo, oval-leafed pondweed (Monochoria vaginalis)
Method in brief: as §1

barnyard grass [1] = test: Test Example 3: herbicidal effect by foliage application, Wagner pot (Table 18, symbol H); format: in vivo, barnyard grass (Echinochloa crus-galli)
Method in brief: (§2)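 Plants were sown in alluvial soil held under 0.1–0.5 cm standing water and grown 14 days in a greenhouse at 25–30 °C. An emulsifiable formulation, water-diluted to the set dose, was then sprayed onto the foliage, and effects were scored three weeks later using previously defined criteria.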

Chinese sprangletop = test: Test Example 3: herbicidal effect by foliage application, Wagner pot (Table 18, symbol D); format: in vivo, chinese sprangletop (Leptochloa chinensis)
Method in brief: as §2

rice flat sedge = test: Test Example 3: herbicidal effect by foliage application, Wagner pot (Table 18, symbol E); format: in vivo, rice flat sedge (Cyperus iria)
Method in brief: as §2

southern crabgrass [2] = test: Test Example 4: herbicidal effect by soil treatment (Table 19, symbol F); format: in vivo, southern crabgrass (Digitaria ciliaris)
Method in brief: (§3)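 Soil-surface application: an emulsion agent diluted with water to the predetermined dose is sprayed uniformly over seeds lying under roughly 1.5 cm of sterilized diluvial soil. Boxes stay in a greenhouse at 25° C. to 30° C. Three weeks later, each species is graded on previously defined criteria.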

green foxtail [3] = test: Test Example 4: herbicidal effect by soil treatment (Table 19, symbol G); format: in vivo, green foxtail (Setaria viridis)
Method in brief: as §3

barnyard grass [4] = test: Test Example 4: herbicidal effect by soil treatment (Table 19, symbol H); format: in vivo, barnyard grass (Echinochloa crus-galli)
Method in brief: as §3

wild oat [5] = test: Test Example 4: herbicidal effect by soil treatment (Table 19, symbol I); format: in vivo, wild oat (Avena fatua)
Method in brief: as §3

Italian ryegrass [6] = test: Test Example 4: herbicidal effect by soil treatment (Table 19, symbol K); format: in vivo, Italian ryegrass (Lolium multiflorum)
Method in brief: as §3

windgrass [7] = test: Test Example 4: herbicidal effect by soil treatment (Table 19, symbol L); format: in vivo, windgrass (Apera spica-venti)
Method in brief: as §3

velvetleaf [8] = test: Test Example 4: herbicidal effect by soil treatment (Table 19, symbol M); format: in vivo, velvetleaf (Abutilon theophrasti)
Method in brief: as §3

redroot pigweed [9] = test: Test Example 4: herbicidal effect by soil treatment (Table 19, symbol N); format: in vivo, redroot pigweed (Amaranthus retroflexus)
Method in brief: as §3

lambsquarters [10] = test: Test Example 4: herbicidal effect by soil treatment (Table 19, symbol O); format: in vivo, lambsquarters (Chenopodium album)
Method in brief: as §3

chickweed [11] = test: Test Example 4: herbicidal effect by soil treatment (Table 19, symbol P); format: in vivo, common chickweed (Stellaria media)
Method in brief: as §3

persian speedwell [12] = test: Test Example 4: herbicidal effect by soil treatment (Table 19, symbol R); format: in vivo, Persian speedwell (Veronica persica)
Method in brief: as §3

southern crabgrass [13] = test: Test Example 5: herbicidal effect by foliage application, plastic box (Table 20, symbol F); format: in vivo, southern crabgrass (Digitaria ciliaris); conditions: foliage application, AAH 320 g/ha
Method in brief: (§4)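 Sow seeds spot-wise in sterilized diluvial soil; cover with ~1.5 cm soil. Grow 14 days in greenhouse, 25° C. to 30° C. Spray foliage with emulsion diluted to predetermined amount. Rate effect after 3 weeks.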

green foxtail [14] = test: Test Example 5: herbicidal effect by foliage application, plastic box (Table 20, symbol G); format: in vivo, green foxtail (Setaria viridis); conditions: foliage application, AAH 320 g/ha
Method in brief: as §4

barnyard grass [15] = test: Test Example 5: herbicidal effect by foliage application, plastic box (Table 20, symbol H); format: in vivo, barnyard grass (Echinochloa crus-galli); conditions: foliage application, AAH 320 g/ha
Method in brief: as §4

wild oat [16] = test: Test Example 5: herbicidal effect by foliage application, plastic box (Table 20, symbol I); format: in vivo, wild oat (Avena fatua); conditions: foliage application, AAH 320 g/ha
Method in brief: as §4

blackgrass = test: Test Example 5: herbicidal effect by foliage application, plastic box (Table 20, symbol J); format: in vivo, blackgrass (Alopecurus myosuroides); conditions: foliage application, AAH 320 g/ha
Method in brief: as §4

Italian ryegrass [17] = test: Test Example 5: herbicidal effect by foliage application, plastic box (Table 20, symbol K); format: in vivo, Italian ryegrass (Lolium multiflorum); conditions: foliage application, AAH 320 g/ha
Method in brief: as §4

windgrass [18] = test: Test Example 5: herbicidal effect by foliage application, plastic box (Table 20, symbol L); format: in vivo, windgrass (Apera spica-venti); conditions: foliage application, AAH 320 g/ha
Method in brief: as §4

velvetleaf [19] = test: Test Example 5: herbicidal effect by foliage application, plastic box (Table 20, symbol M); format: in vivo, velvetleaf (Abutilon theophrasti); conditions: foliage application, AAH 320 g/ha
Method in brief: as §4

redroot pigweed [20] = test: Test Example 5: herbicidal effect by foliage application, plastic box (Table 20, symbol N); format: in vivo, redroot pigweed (Amaranthus retroflexus); conditions: foliage application, AAH 320 g/ha
Method in brief: as §4

lambsquarters [21] = test: Test Example 5: herbicidal effect by foliage application, plastic box (Table 20, symbol O); format: in vivo, lambsquarters (Chenopodium album); conditions: foliage application, AAH 320 g/ha
Method in brief: as §4

chickweed [22] = test: Test Example 5: herbicidal effect by foliage application, plastic box (Table 20, symbol P); format: in vivo, common chickweed (Stellaria media); conditions: foliage application, AAH 320 g/ha
Method in brief: as §4

persian speedwell [23] = test: Test Example 5: herbicidal effect by foliage application, plastic box (Table 20, symbol R); format: in vivo, Persian speedwell (Veronica persica); conditions: foliage application, AAH 320 g/ha
Method in brief: as §4

[24] = amount of applied herbicide 320 g/ha
[25] = evaluated three weeks after application

CCCC(=O)Oc1c(C)nn(C)c(=O)c1-c1c(-c2ccccc2OCOC)sc2ccccc12 [1-115]
Herbicidal effect on A: late watergrass (grade 0-5) (late watergrass; 320 g/ha applied herbicide): 2 (Herbicidal rate of 20% or more and less than 40%)
Herbicidal effect on B: Japanese bulrush (grade 0-5) (Japanese bulrush; 320 g/ha applied herbicide): 0 (Herbicidal rate of 5% or less (almost no effect))
Herbicidal effect on C: oval-leafed pondweed (grade 0-5) (oval-leafed pondweed; 320 g/ha applied herbicide): 2 (Herbicidal rate of 20% or more and less than 40%)
herbicidal effect on H (barnyard grass), rating 0-5 (barnyard grass [1]; 320 g/ha): 4 (Herbicidal rate of 70% or more and less than 90%)
herbicidal effect on D (Chinese sprangletop), rating 0-5 (Chinese sprangletop; 320 g/ha): 2 (Herbicidal rate of 20% or more and less than 40%)
herbicidal effect on E (rice flat sedge), rating 0-5 (rice flat sedge; 320 g/ha): 2 (Herbicidal rate of 20% or more and less than 40%)
F: southern crabgrass, herbicidal effect rating (southern crabgrass [2]; AAH 320 g/ha): 0 (Herbicidal rate of 5% or less (almost no effect))
G: green foxtail, herbicidal effect rating (green foxtail [3]; AAH 320 g/ha): 0 (Herbicidal rate of 5% or less (almost no effect))
H: barnyard grass, herbicidal effect rating (barnyard grass [4]; AAH 320 g/ha): 2 (Herbicidal rate of 20% or more and less than 40%)
I: wild oat, herbicidal effect rating (wild oat [5]; AAH 320 g/ha): 0 (Herbicidal rate of 5% or less (almost no effect))
K: Italian ryegrass, herbicidal effect rating (Italian ryegrass [6]; AAH 320 g/ha): 0 (Herbicidal rate of 5% or less (almost no effect))
L: windgrass, herbicidal effect rating (windgrass [7]; AAH 320 g/ha): 0 (Herbicidal rate of 5% or less (almost no effect))
M: velvetleaf, herbicidal effect rating (velvetleaf [8]; AAH 320 g/ha): 0 (Herbicidal rate of 5% or less (almost no effect))
N: redroot pigweed, herbicidal effect rating (redroot pigweed [9]; AAH 320 g/ha): 3 (Herbicidal rate of 40% or more and less than 70%)
O: lambsquarters, herbicidal effect rating (lambsquarters [10]; AAH 320 g/ha): 0 (Herbicidal rate of 5% or less (almost no effect))
P: chickweed, herbicidal effect rating (chickweed [11]; AAH 320 g/ha): 0 (Herbicidal rate of 5% or less (almost no effect))
R: persian speedwell, herbicidal effect rating (persian speedwell [12]; AAH 320 g/ha): 0 (Herbicidal rate of 5% or less (almost no effect))
F: southern crabgrass, herbicidal effect (southern crabgrass [13]; three weeks after application): 4 (Herbicidal rate of 70% or more and less than 90%)
G: green foxtail, herbicidal effect (green foxtail [14]; three weeks after application): 4 (Herbicidal rate of 70% or more and less than 90%)
H: barnyard grass, herbicidal effect (barnyard grass [15]; three weeks after application): 2 (Herbicidal rate of 20% or more and less than 40%)
I: wild oat, herbicidal effect (wild oat [16]; three weeks after application): 2 (Herbicidal rate of 20% or more and less than 40%)
J: blackgrass, herbicidal effect (blackgrass; three weeks after application): 4 (Herbicidal rate of 70% or more and less than 90%)
K: Italian ryegrass, herbicidal effect (Italian ryegrass [17]; three weeks after application): 0 (Herbicidal rate of 5% or less (almost no effect))
L: windgrass, herbicidal effect (windgrass [18]; three weeks after application): 4 (Herbicidal rate of 70% or more and less than 90%)
M: velvetleaf, herbicidal effect (velvetleaf [19]; three weeks after application): 3 (Herbicidal rate of 40% or more and less than 70%)
N: redroot pigweed, herbicidal effect (redroot pigweed [20]; three weeks after application): 5 (Herbicidal rate of 90% or more (almost completely withered))
O: lambsquarters, herbicidal effect (lambsquarters [21]; three weeks after application): 2 (Herbicidal rate of 20% or more and less than 40%)
P: chickweed, herbicidal effect (chickweed [22]; three weeks after application): 5 (Herbicidal rate of 90% or more (almost completely withered))
R: persian speedwell, herbicidal effect (persian speedwell [23]; three weeks after application): 2 (Herbicidal rate of 20% or more and less than 40%)

CCCC(=O)Oc1c(C)nn(C)c(=O)c1-c1c(-c2ccc3c(c2)OC(F)(F)O3)sc2ccc(F)cc12 [2-393]
Herbicidal effect, A: late watergrass (late watergrass; [24]): 3 (Herbicidal rate of 40% or more and less than 70%)
Herbicidal effect, B: Japanese bulrush (Japanese bulrush; [24]): 0 (Herbicidal rate of 5% or less (almost no effect))
Herbicidal effect, C: oval-leafed pondweed (oval-leafed pondweed; [24]): 0 (Herbicidal rate of 5% or less (almost no effect))
herbicidal effect on H: barnyard grass (barnyard grass [1]; [24]): 5 (Herbicidal rate of 90% or more (almost completely withered))
herbicidal effect on D: Chinese sprangletop (Chinese sprangletop; [24]): 1 (Herbicidal rate of 5% or more and less than 20%)
herbicidal effect on E: rice flat sedge (rice flat sedge; [24]): 3 (Herbicidal rate of 40% or more and less than 70%)
herbicidal effect, F: southern crabgrass (southern crabgrass [2]; [24]): 0 (Herbicidal rate of 5% or less (almost no effect))
herbicidal effect, G: green foxtail (green foxtail [3]; [24]): 0 (Herbicidal rate of 5% or less (almost no effect))
herbicidal effect, H: barnyard grass (barnyard grass [4]; [24]): 0 (Herbicidal rate of 5% or less (almost no effect))
herbicidal effect, I: wild oat (wild oat [5]; [24]): 0 (Herbicidal rate of 5% or less (almost no effect))
herbicidal effect, K: Italian ryegrass (Italian ryegrass [6]; [24]): 4 (Herbicidal rate of 70% or more and less than 90%)
herbicidal effect, L: windgrass (windgrass [7]; [24]): 5 (Herbicidal rate of 90% or more (almost completely withered))
herbicidal effect, M: velvetleaf (velvetleaf [8]; [24]): 0 (Herbicidal rate of 5% or less (almost no effect))
herbicidal effect, N: redroot pigweed (redroot pigweed [9]; [24]): 0 (Herbicidal rate of 5% or less (almost no effect))
herbicidal effect, O: lambsquarters (lambsquarters [10]; [24]): 0 (Herbicidal rate of 5% or less (almost no effect))
herbicidal effect, P: chickweed (chickweed [11]; [24]): 4 (Herbicidal rate of 70% or more and less than 90%)
herbicidal effect, R: persian speedwell (persian speedwell [12]; [24]): 4 (Herbicidal rate of 70% or more and less than 90%)
F: southern crabgrass, herbicidal effect (criteria 0-5) (southern crabgrass [13]; [25]): 1 (Herbicidal rate of 5% or more and less than 20%)
G: green foxtail, herbicidal effect (criteria 0-5) (green foxtail [14]; [25]): 4 (Herbicidal rate of 70% or more and less than 90%)
H: barnyard grass, herbicidal effect (criteria 0-5) (barnyard grass [15]; [25]): 5 (Herbicidal rate of 90% or more (almost completely withered))
I: wild oat, herbicidal effect (criteria 0-5) (wild oat [16]; [25]): 4 (Herbicidal rate of 70% or more and less than 90%)
J: blackgrass, herbicidal effect (criteria 0-5) (blackgrass; [25]): 1 (Herbicidal rate of 5% or more and less than 20%)
K: Italian ryegrass, herbicidal effect (criteria 0-5) (Italian ryegrass [17]; [25]): 4 (Herbicidal rate of 70% or more and less than 90%)
L: windgrass, herbicidal effect (criteria 0-5) (windgrass [18]; [25]): 5 (Herbicidal rate of 90% or more (almost completely withered))
M: velvetleaf, herbicidal effect (criteria 0-5) (velvetleaf [19]; [25]): 4 (Herbicidal rate of 70% or more and less than 90%)
N: redroot pigweed, herbicidal effect (criteria 0-5) (redroot pigweed [20]; [25]): 4 (Herbicidal rate of 70% or more and less than 90%)
O: lambsquarters, herbicidal effect (criteria 0-5) (lambsquarters [21]; [25]): 4 (Herbicidal rate of 70% or more and less than 90%)
P: chickweed, herbicidal effect (criteria 0-5) (chickweed [22]; [25]): 5 (Herbicidal rate of 90% or more (almost completely withered))
R: persian speedwell, herbicidal effect (criteria 0-5) (persian speedwell [23]; [25]): 5 (Herbicidal rate of 90% or more (almost completely withered))
